The CheMixHub viscosity set

Assay: xn = mol fraction of the nth substance listed

CC(O)CO (stereo not given) + CCCCO
viscosity [mPa·s], 100 kPa
Conditions	298.15 K	303.15 K	308.15 K	313.15 K	318.15 K	323.15 K
x2 = 0.1	27.93	21.57	16.86	13.38	10.79	8.811
x2 = 0.2	19.65	15.46	12.28	9.943	8.14	6.729
x2 = 0.302	14.18	11.36	9.188	7.539	6.25	5.239
x2 = 0.4	10.82	8.829	7.309	6.057	5.107	4.328
x2 = 0.5	8.015	6.634	5.555	4.699	–	–
x2 = 0.501	–	–	–	–	3.987	3.422
x2 = 0.6	6.068	5.094	4.337	3.686	–	–
x2 = 0.601	–	–	–	–	3.178	2.743
x2 = 0.701	4.884	4.156	3.556	3.057	2.659	2.317
x2 = 0.801	3.858	3.307	2.885	2.514	2.199	1.937
x2 = 0.9	3.102	2.716	2.374	2.078	–	–
x2 = 0.901	–	–	–	–	1.833	1.634

ClC=C(Cl)Cl + CCCCO
viscosity [mPa·s], 101 kPa
Conditions	x2 = 0.0983	x2 = 0.2464	x2 = 0.3954	x2 = 0.5452	x2 = 0.696	x2 = 0.8476
303.15 K	0.669	0.98	1.24	1.492	1.747	2
313.15 K	0.601	0.814	1.03	1.218	1.408	1.599
323.15 K	0.52	0.698	0.835	0.973	1.111	1.252

NC1CCCCC1 + CCCCO
viscosity [mPa·s], 101 kPa
Conditions	293.15 K	298.15 K	303.15 K
x1 = 0.0515	2.935	2.587	2.27
x1 = 0.0767	–	2.558	–
x1 = 0.1008	2.906	2.563	2.26
x1 = 0.147	2.891	2.549	2.24
x1 = 0.1574	–	2.555	–
x1 = 0.2004	2.886	2.545	2.236
x1 = 0.2426	–	2.564	–
x1 = 0.2992	2.897	2.547	2.233
x1 = 0.3325	–	2.574	–
x1 = 0.4007	2.882	2.533	2.216
x1 = 0.4277	–	2.549	–
x1 = 0.4475	2.868	2.523	–
x1 = 0.4971	2.829	2.48	2.172
x1 = 0.5285	–	2.481	–
x1 = 0.5421	2.784	2.442	2.142
x1 = 0.6078	2.701	2.387	2.095
x1 = 0.6355	–	2.379	–
x1 = 0.7051	2.558	2.259	1.991
x1 = 0.7493	–	2.248	–
x1 = 0.7941	2.419	2.142	1.893
x1 = 0.846	2.344	2.08	1.842
x1 = 0.8706	–	2.062	–
x1 = 0.8879	2.295	2.039	1.81
x1 = 0.9384	2.216	1.973	1.751
